Reference: PMC6522510 (Nature Communications, 2019)
Read-outs that look alike come from different tables or passages of the source.

Tests used:
Experiment in all cases: cells
Set-up in all cases: species or system AML cell lines (8); Secondary HTS, 10-point dose-response in triplicate, Cell Titer Glo viability, four-parameter fit EC50
[1] = system: MOLM-13; settings: Homo sapiens, read-out: MOLM-13
[2] = system: MV4-11; settings: Homo sapiens, read-out: MV4-11
[3] = system: CHRF288-11; settings: read-out: CHRF288-11
[4] = system: CMK; settings: Homo sapiens, read-out: CMK
[5] = system: CMS; settings: read-out: CMS
[6] = system: M07e; settings: M-07e, read-out: M07e
[7] = system: ML-2; settings: Homo sapiens, read-out: ML-2
[8] = system: U937; settings: Homo sapiens, read-out: U937

Row | Compound | EC50 ([1]; MOLM-13, 72 h) [µM] | EC50 ([2]; MV4-11, 72 h) [µM] | EC50 ([3]; 72 h) [µM] | EC50 ([4]; CMK, 72 h) [µM] | EC50 ([5]; 72 h) [µM] | EC50 ([6]; 72 h) [µM] | EC50 ([7]; ML-2, 72 h) [µM] | EC50 ([8]; U-937, 72 h) [µM] | EC50 ([1]; 72 h cell viability) [µM] | EC50 ([2]; 72 h cell viability) [µM] | EC50 ([3]; 72 h cell viability) [µM] | EC50 ([4]; 72 h cell viability) [µM] | EC50 ([5]; 72 h cell viability) [µM] | EC50 ([6]; 72 h cell viability) [µM] | EC50 ([7]; 72 h cell viability) [µM] | EC50 ([8]; U-937, 72 h cell viability) [µM]
1 | Cc1ccc(C(=O)COC(=O)c2cccc(NC(=O)c3ccc([N+](=O)[O-])cc3[N+](=O)[O-])c2)cc1 [SJ000796012, FM19G11] | > 10 | > 10 | > 10 | > 10 | > 10 | > 10 | > 10 | > 10 |  |  |  |  |  |  |  | 
2 | O=C(CCCCCCNC(=O)c1cnc(N(c2ccccc2)c2ccccc2)nc1)NO [SJ000833835, ROCILINOSTAT] | > 10 | > 10 | > 10 | 9.1 | > 10 | 2.7 | > 10 | 10 |  |  |  |  |  |  |  | 
3 | N#CC(=C(/N)Sc1ccccc1N)/C(C#N)=C(\N)Sc1ccccc1N [SJ000288250, U0126] | > 10 | > 10 | > 10 | > 10 | > 10 | > 10 | > 10 | > 10 |  |  |  |  |  |  |  | 
4 | CCc1c(O)cc(O)c(C(=O)c2ccc(OCCN3CCOCC3)c(OC)c2)c1CC(=O)N(CCOC)CCOC [SJ000821566, KW-2478] | 0.11 | 0.071 | 6.3 | 4.4 | > 10 | > 10 | 0.16 | > 10 |  |  |  |  |  |  |  | 
5 | CS(=O)(=O)CCNCc1ccc(-c2ccc3ncnc(Nc4ccc(OCc5cccc(F)c5)c(Cl)c4)c3c2)o1 [LAPATINIB] | > 10 | > 10 | > 10 | > 10 | > 10 | > 10 | > 10 | > 10 |  |  |  |  |  |  |  | 
6 | c1ccc(-c2nn3c(c2-c2ccnc4cc(OCCN5CCOCC5)ccc24)CCC3)nc1 [SJ000834150, LY2109761] | > 10 | > 10 | > 10 | > 10 | > 10 | > 10 | > 10 | > 10 |  |  |  |  |  |  |  | 
7 | CSCC[C@H](NC(=O)c1ccc(NC(=O)[C@@H](N)CS)cc1)C(=O)O [SJ000803714, H-CYS-4-ABZ-MET-OH] | > 10 | > 10 | > 10 | > 10 | > 10 | > 10 | > 10 | 2.7 |  |  |  |  |  |  |  | 
8 | COC(=O)[C@H](CCSC)NC(=O)c1ccc(NC[C@@H](N)CS)cc1-c1ccccc1 [SJ000803699, FTI-277] | > 10 | > 10 | > 10 | > 10 | > 10 | > 10 | > 10 | > 10 |  |  |  |  |  |  |  | 
9 | Cc1c(N)nc([C@H](CC(N)=O)NC[C@H](N)C(N)=O)nc1C(=O)N[C@H](C(=O)N[C@H](C)[C@@H](O)[C@H](C)C(=O)N[C@H](C(=O)NCCc1nc(-c2nc(C(=O)NCCC[S+](C)C)cs2)cs1)[C@@H](C)O)[C@@H](OC1OC(CO)C(O)C(O)C1OC1OC(CO)C(O)C(OC(N)=O)C1O)c1cnc[nH]1 (some centres unmarked) [SJ000804032, BLEOMYCIN] | 6.9 | > 10 | > 10 | > 10 | > 10 | > 10 | > 10 | > 10 |  |  |  |  |  |  |  | 
10 | Cc1ccc(S(=O)(=O)n2c(N)nc3ccccc32)cc1 [SJ000042554, NODINITIB-1] | > 10 | > 10 | > 10 | > 10 | > 10 | > 10 | > 10 | > 10 |  |  |  |  |  |  |  | 
11 | Cc1nn(C)c(C)c1C(=O)N1CCN(Cc2nc3ccccc3n2CC(C)(C)C)CC1 [SJ000796025, FTASE INHIBITOR III] | > 10 | > 10 | > 10 | 3.1 | > 10 | > 10 | > 10 | > 10 |  |  |  |  |  |  |  | 
12 | CCOC(=O)c1cc2ccccc2nc1C [SJ000025189, MC-1626] | > 10 | > 10 | > 10 | > 10 | > 10 | > 10 | > 10 | > 10 |  |  |  |  |  |  |  | 
13 | Nc1ncnc2c1ncn2[C@@H]1O[C@H](C[C@@H](N)CC[C@H](N)C(=O)O)[C@@H](O)[C@H]1O [SINEFUNGIN] | > 10 | > 10 | > 10 | > 10 | > 10 | > 10 | > 10 | > 10 |  |  |  |  |  |  |  | 
14 | O=C(CCN1CCN(C(=O)OCc2cc(Cl)cc(Cl)c2)CC1)c1ccc2[nH]c(=O)oc2c1 [SJ000833851, PF-8380] | 0.0024 | > 10 | > 10 | > 10 | > 10 | > 10 | > 10 | > 10 |  |  |  |  |  |  |  | 
15 | COc1ccc(Cn2ccc3ccc(C(=O)NO)cc32)cc1 [SJ000833836, PCI 34051] | > 10 | > 10 | > 10 | > 10 | 6.8 | > 10 | > 10 | > 10 |  |  |  |  |  |  |  | 
16 | Nc1nc(OCc2cc(Br)cs2)c2[nH]cnc2n1 [LOMEGUATRIB] | > 10 | > 10 | > 10 | > 10 | > 10 | > 10 | > 10 | > 10 |  |  |  |  |  |  |  | 
17 | C[C@@H]1NC(=O)[C@H]2CCCN2C(=O)[C@H](CCCCCC(=O)[C@@H]2CO2)NC(=O)[C@@H](C)NC1=O [SJ000785910, HC TOXIN] |  |  |  |  |  |  |  |  | 0.15 | > 10 | 0.05 | > 10 | 0.029 | 0.021 | 0.11 | 0.032
18 | O[C@@H]1CO[C@H]2[C@@H]1OC[C@@H]2O [ISOSORBIDE] | > 10 | > 10 | > 10 | > 10 | > 10 | > 10 | > 10 | > 10 |  |  |  |  |  |  |  | 
19 | CC1=C(/C=C/C(C)=C/C=C/C(C)=C/C(=O)O)C(C)(C)CCC1 [TRETINOIN] | > 10 | > 10 | > 10 | > 10 | > 10 | > 10 | > 10 | > 10 |  |  |  |  |  |  |  | 
